Source: patent USRE48461E1, “Modulation of androgen receptor expression” (Ionis Pharmaceuticals, Inc., priority 2012, dated 2021)
Oligonucleotides are written 5' to 3', each unit as a sugar letter and its base; * is a phosphorothioate linkage, no mark a phosphodiester; rarer units and linkages stand in square brackets, end groups in braces. Plain capitals give the bases only. e = 2'-O-(2-methoxyethyl) (MOE); k = constrained ethyl (cEt); [5mC] = 5-methylcytosine; d = 2'-deoxy (DNA)

Experiments:
[1] = test system: AR mRNA; test: AR mRNA in LnCaP cells by free uptake (hAR_LTS00943); type: cell-based, human; conditions: 24 hrs
Experimental: Cells were plated at a concentration of 4,000 cells/well in 96-well plates. ISIS oligonucleotides, specified in Table 68, were added individually at 0.02 μM, 0.10 μM, 0.50 μM, 2.50 μM, or 10.00 μM. After an incubation period of 24 hrs, mRNA levels were measured using primer probe set hAR_LTS00943.

[2] = test system: AR mRNA; test: Antisense inhibition of human AR in HuVEC cells, single concentration (electroporation, qRT-PCR RTS3559); type: cell-based; conditions: 1,000 nM ASO, ~24 h, Table 13
Outline: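 HuVEC cells electroporated with antisense oligonucleotides at a single concentration. AR mRNA quantified by qRT-PCR using human primer-probe set RTS3559 and normalised to total RNA content by RIBOGREEN.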

[3] = test system: AR mRNA; test: Dose-dependent antisense inhibition of human AR in HuVEC cells (electroporation, qRT-PCR RTS3559, IC50); type: cell-based; conditions: for inhibition of AR mRNA at 46.9 nM: 46.9 nM ASO; for inhibition of AR mRNA at 187.5 nM: 187.5 nM ASO; for inhibition of AR mRNA at 750.0 nM: 750.0 nM ASO; for inhibition of AR mRNA at 3000.0 nM: 3000.0 nM ASO
Outline: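 HuVEC cells dosed with antisense oligonucleotides by electroporation and treated approximately 16 hours. AR mRNA quantified by real-time qPCR with primer probe set RTS3559 and normalised to total RNA by RIBOGREEN; IC50 from dose-response.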

[4] = 46.9 nM, HuVEC, ~16 h, Table 15
[5] = 187.5 nM, HuVEC, ~16 h, Table 15
[6] = 750.0 nM, HuVEC, ~16 h, Table 15
[7] = 3000.0 nM, HuVEC, ~16 h, Table 15

586227 (kT*kG*kA*kT*kT*dT*dA*dA*dT*dG*dG*dT*dT*kG*k[5mC]*kA; antisense) [compound 586227]
Percent inhibition of AR mRNA ([1]; 0.02 μM): 0% | Percent inhibition of AR mRNA ([1]; 0.1 μM): 0% | Percent inhibition of AR mRNA ([1]; 0.5 μM): 14% | Percent inhibition of AR mRNA ([1]; 10 μM): 59% | % inhibition [2]: 87% | percent inhibition of AR [3, 4]: 20% | percent inhibition of AR [3, 5]: 60% | percent inhibition of AR [3, 6]: 88% | percent inhibition of AR [3, 7]: 96% | IC50 ([3]; HuVEC cells, electroporation): 130 nM | inhibition of AR mRNA at 46.9 nM ([3]; HuVEC cells, electroporation): 20% | inhibition of AR mRNA at 187.5 nM ([3]; HuVEC cells, electroporation): 60% | inhibition of AR mRNA at 750.0 nM ([3]; HuVEC cells, electroporation): 88% | inhibition of AR mRNA at 3000.0 nM ([3]; HuVEC cells, electroporation): 96% | IC50 ([3]; HuVEC, ~16 h, Table 15): 130 nM

586124 (kG*kA*kT*dT*dT*dA*dA*dT*dG*dG*dT*dT*dG*k[5mC]*kA*kA; further chemistry not given here) [compound 586124]
Percent inhibition of AR mRNA ([1]; 0.02 μM): 0% | Percent inhibition of AR mRNA ([1]; 0.1 μM): 0% | Percent inhibition of AR mRNA ([1]; 0.5 μM): 19% | Percent inhibition of AR mRNA ([1]; 10 μM): 82% | % inhibition [2]: 82% | percent inhibition of AR [3, 4]: 28% | percent inhibition of AR [3, 5]: 47% | percent inhibition of AR [3, 6]: 84% | percent inhibition of AR [3, 7]: 94% | IC50 ([3]; HuVEC cells, electroporation): 130 nM | inhibition of AR mRNA at 46.9 nM ([3]; HuVEC cells, electroporation): 28% | inhibition of AR mRNA at 187.5 nM ([3]; HuVEC cells, electroporation): 47% | inhibition of AR mRNA at 750.0 nM ([3]; HuVEC cells, electroporation): 84% | inhibition of AR mRNA at 3000.0 nM ([3]; HuVEC cells, electroporation): 94% | IC50 ([3]; HuVEC, ~16 h, Table 15): 130 nM

569227 (antisense eT*eG*kA*kT*kT*dT*dA*dA*dT*dG*dG*dT*kT*kG*k[5mC]*eA) [compound 569227]
Percent inhibition of AR mRNA ([1]; 0.02 μM): 0% | Percent inhibition of AR mRNA ([1]; 0.1 μM): 0% | Percent inhibition of AR mRNA ([1]; 0.5 μM): 4% | Percent inhibition of AR mRNA ([1]; 10 μM): 55% | % inhibition [2]: 51% | percent inhibition of AR ([3]; 31.25 nM, HuVEC, ~16 h, Table 14): 13% | percent inhibition of AR ([3]; 62.5 nM, HuVEC, ~16 h, Table 10): 8% | percent inhibition of AR ([3]; 62.5 nM, HuVEC, ~16 h, Table 14): 22% | percent inhibition of AR ([3]; 125.0 nM, HuVEC, ~16 h, Table 10): 40% | percent inhibition of AR ([3]; 125.0 nM, HuVEC, ~16 h, Table 14): 45% | percent inhibition of AR ([3]; 500.0 nM, HuVEC, ~16 h, Table 10): 51% | percent inhibition of AR ([3]; 500.0 nM, HuVEC, ~16 h, Table 14): 61% | percent inhibition of AR ([3]; 1000.0 nM, HuVEC, ~16 h, Table 10): 73% | percent inhibition of AR ([3]; 1000.0 nM, HuVEC, ~16 h, Table 14): 74% | IC50 ([3]; HuVEC, ~16 h, Table 10): 388 nM | IC50 ([3]; HuVEC, ~16 h, Table 14): 255 nM
